Results from patent publication US6680301B2, “Transfer of molecules into the cytosol of cells” (Photocure AS, priority 1994, dated 2004).
Entries after “also recorded” stand apart in the source; their conditions may differ. [FluoU] = uridine (ribose) carrying fluorescein on the base; {invT} = 3'-3' inverted thymidine; m = 2'-O-methyl; r = 2'-OH (RNA)

Experiments:
NHIK 3025 cells [1] = test: Cell killing / clonogenic survival after TPPS2a, gelonin and light; format: cell-based, human
Protocol: (§1) NHIK 3025 cells were incubated with TPPS2a (Formula I) and gelonin, separately or together for 18 hours, followed by 1 hour in TPPS2a and gelonin-free medium before the cells were exposed to light. Protein synthesis was measured 24 hours after exposure to light. The photodynamic treatment, which kills 10-20% of the cells alone, reduced the protein synthesis by 30-40% (FIG. 2).
NHIK 3025 cells were incubated with TPPS2a and gelonin according to the design of Example 1.
Clonogenic survival of the cells was measured 24 hours after exposure to light. […] This is in accordance with prior art regarding killing unwanted cells with PDT. […] Increased concentration of added gelonin leads to more gelonin in the cytosol, as indicated by an increased sensitivity of the cells to photoactivation.

NHIK 3025 cells [2] = test: Protein synthesis (3[H]leucine incorporation) after photosensitizer, toxin and light; format: cell-based, human
Protocol: FIG. 2 illustrates protein synthesis in NHIK 3025 cells after treatment with gelonin in the absence or presence of TPPS2a and 50 sec light exposure. Symbols: ◯, TPPS2a+light; ●, −TPPS2a−light; ∇, +TPPS2a−light; ▾, −TPPS2a+light. […] Protein synthesis was measured by measuring incorporation of ^3[H]leucine into proteins, 24 hours after light exposure.
as §1
(§2) The intracellular location of the photosensitizers are lysosomal (TPPS4, TPPS2a, AlPcS2a) and extralysosomal (3-THPP). The following abbreviations are used: AlPcS2a for aluminum phtalocyanine with 2 sulfonate groups on adjacent phenyl rings; TPPS4 for meso-tetraphenylporphine with 4 sulfonate groups; TPPS2a for meso-tetraphenylporphine with 2 sulfonate groups on adjacent phenyl rings; 3-THPP for tetrahydroxylphenyl porphine. The cell lines used were carcinoma cells in situ from human cervix (NHIK 3025), Chinese hamster lung fibroblasts (V79), SV40-transformed African Green monkey kidney (CV1-simian fibroblasts-like cells) (Cos-7) human osteosarcoma cells (OHS) and small cell lung cancer cells (H146). All experiments were designed as in Example 1.

OHS cells = test: Protein synthesis after TPPS2a and light with or without gelonin; format: cell-based, human; conditions: 3 μg/ml TPPS2a, 3 μg/ml gelonin, 50 μM chloroquine or 10 mM NH4Cl
Protocol: FIG. 13 illustrates protein synthesis in OHS cells after treatment with 3 μg/ml TPPS2a for 18 hours followed by 4 hours in the absence of TPPS2a and in the absence or presence of 3 μg/ml gelonin before exposure to light. The cells were incubated for the same 4 hours in 50 μM chloroquine or 10 mM NH4Cl to inhibit lysosomal protein degradation.
as §2
(FIG. 13). In this cell line there is a considerable protein degradation in the lysosomes, which in the present example is inhibited by incubating the cells for 4 hours in either 50 μM chloroquine or 10 mM NH4Cl.

V79 cells = test: Protein synthesis after photosensitizer and light with or without gelonin; format: cell-based, Chinese hamster; conditions: 25 μg/ml AlPcS2a
Protocol: FIG. 5 illustrates protein synthesis in V79 cells after treatment with 25 μg/ml AlPcS2 and light in the absence and presence of 1 μg/ml gelonin. Symbols: ● Photosensitizer+toxin; ◯ photosensitizer.
as §2
This example relates to use of the photosensitizer AlPcS2a in V79 cells with or without gelonin as the toxin (FIG. 5). […] (Moan, J., Berg, K., Anholt, H. and Madslien, K. (1994). Sulfonated aluminum phtalocyanines as sensitizers for photochemotherapy. Effects of small light doses on localization, dye fluorescence and photosensitivity in V79 cells. Int. J. Cancer 58: 865-870.)

H146 cells = test: Protein synthesis after TPPS2a and light with or without gelonin; format: cell-based; conditions: 0.3 μg/ml TPPS2a, 1 μg/ml gelonin
Protocol: FIG. 6 illustrates protein synthesis in H146 cells after treatment with 0.3 μg/ml TPPS2a and light in the absence and presence of 1 μg/ml gelonin. Symbols as in FIG. 5.
as §2
(FIG. 6). TPPS2a is known to be lysosomally located in the cell. […]

COS-7 cells = test: as above; format: cell-based, African Green monkey; conditions: 3 μg/ml TPPS2a, 1 μg/ml gelonin
Protocol: FIG. 11 illustrates protein synthesis in COS-7 cells after treatment with 3 μg/ml TPPS2a and light in the absence and presence of 1 μg/ml gelonin. Symbols as in FIG. 5.
as §2

THX-cells [3] = test: Transfection efficiency after PCI with different doses of AlPcS2a (Example 20); format: cell-based, human; conditions: 5 or 40 μg/ml AlPcS2a, pEGFP-N1-polylysine complex, 2 or 4 min light
Protocol: FIG. 21 illustrates transfection efficiency after PCI with different doses of AlPcS2a. Cells were treated with different doses of the photosensitizer, transfected with a plasmid DNA-polylysine complex and analysed by flow cytometry as described in the text of Example 20. the white bars represent an AlPcS2a dose of 5 μg/ml, while the black bars represent 40 μg/ml.
THX-cells were seeded out into 6 well plates (60 000 cells per well). After overnight incubation AlPcS2a in concentrations of 5 μg/ml or 40 μg/ml was added, and the cells were incubated for 18 h at 37° C. The cells were then washed 3 times with culture medium and transfected with pEGFP-N1-polylysine complex (amount of plasmid 5 μg/ml, charge ratio 1.2, see Example 17) for 6 h. The transfected cells were washed once with medium, and after addition of 2 ml of culture medium the cells were exposed to red light (Phillips TL 20 W/09, filtered through a Cinemoid 35 filter) for 2 or 4 min (control cells were not exposed to the light) and incubated further at 37° C. for 40 hrs before flow cytometry analysis (see Example 17).

THX-cells [4] = test: PCI-induced transfection of TPPS2a-treated THX-cells (Example 23); format: cell-based, human; conditions: 2 μg/ml TPPS2a, blue light 30-150 s, pEGFP-N1-polylysine complex
Protocol: FIG. 24 illustrates PCI induced transfection of TPPS2a-treated THX-cells. Cells were treated with TPPS2a and transfected with a complex of plasmid DNA and polylysine as described in the text of Example 23. After light treatment the cells were analysed by flow cytometry. The white circle represents the total population of living cells, the black sector represents the fraction of cells that was positive for GFP-expression. Light exposure times are indicated on the Figure.
A pEGFP-N1-polylysine complex (5 μg DNA, charge ratio 1.2 was prepared as described above (see Example 17).
THX-cells were seeded out into 6 well plates (60 000 cells per well). After overnight incubation 2 μg/ml of the photosensitizer TPPS2a was added and the cells were incubated further for 18 h at 37° C. The cells were then washed 3 times with culture medium and transfected with the pEGFP-N1-polylysine complex for 6 h. The transfected cells were washed once with medium, and after addition of 2 ml of culture medium the cells were exposed to blue light (Appl. Photophysics, Nood. 3026, London) for 30, 60, 90, 120 or 150 s (control cells were not exposed to the light) and incubated further at 37° C. After 2 days the cells were seeded out into bigger 3004 dishes and incubated further so that the total incubation time before flow cytometry analysis was 108 h.

lysosomal cathepsin = test: Inhibition of lysosomal cathepsin by photodynamic action; format: cell-based, human; conditions: culture of NHIK 3025 cells
Source text: This was a surprising effect of the present invention and assists in maintaining the viability and functionality of the cells after transporting molecules into cytosol by disrupting endosomal/lysosomal membranes.

THX human melanoma cells = test: PCI relocalization of fluorescein-labeled ribozyme (fluorescence microscopy); format: cell-based
Protocol: FIG. 14 illustrates subcellular localization of a fluorescein-ribozyme (5.5 μM) and AlPcS2a (20 μg/ml) in THX cells after 18 h incubation followed by 1 h wash. The Figure illustrates localization without light exposure (A) and after 10 min red light exposure followed by 40 min incubation in the dark (B). (Magnification 40×2.5).
The ribozyme employed in this example was a 37-mer synthetic 2′-O-methylated ribozyme designed against mRNA of the metastasis associated protein capl. The sequence (SEQ ID NO:1) was as follows:
5′-UAGUUCUCU GAUGAGGCCGNUAGGCCGAAA CUUGUU Y-3′, (SEQ ID NO: 1) where N is bases with 2′-O-methylated ribose, Y is uridine with a 3′-3′ inverted thymidine at the 3′ end, N is fluorescein attached to uracil.
To study the intracellular localization of the photosensitizer AlPcS2a and the ribozyme, THX human melanoma cells were plated on 16 well Lab-Tek (Nunc Inc.) chamber slides (3000 cells well^−1). After 18 h the culture medium was replaced with fresh RPMI medium supplemented with 10% fetal calf serum (FCS, Integro b.v., Holland) and containing […] AlPcS2a and […] ribozyme. […]
Control cells were observed without irradiation. […] Phase-contrast and fluorescence micrographs were recorded by means of a cooled charge-coupled device (CCD) camera (Astromed 3200, Cambridge, England).

## gelonin
NHIK 3025 cells [1]; 0.2 or 2.0 μg/ml gelonin
  clonogenic survival when gelonin is added to TPPS2a and light: the survival rate drops
NHIK 3025 cells [2]; 3.2 μg/ml TPPS2a, 50 sec light, measured 24 hours after light
  IC50 of gelonin for inhibition of protein synthesis when combining PDT and gelonin: 0.2 µg/mL
NHIK 3025 cells [2]; 75 μg/ml TPPS4, 50 sec light, different gelonin concentrations
  transport of gelonin into cells with TPPS4 and light: demonstrates transport of gelonin into NHIK 3025 cells
NHIK 3025 cells [2]; gelonin alone with light, or TPPS4 and gelonin without light
  transport of gelonin into cells in controls: no transport of gelonin into the cells was obtained
NHIK 3025 cells [2]; gelonin alone, presence or absence of light, no PDT
  effect of gelonin alone on protein synthesis: inhibits protein synthesis to some extent
OHS cells
  transport of toxin into cells by TPPS2a and light: demonstrates the transport of gelonin into OHS cells
V79 cells; 1 μg/ml gelonin
  protein synthesis with photosensitizer, light and gelonin: profoundly reduced
H146 cells
  transport of toxin into cells by TPPS2a and light: transport of the toxin gelonin into H146 cells without essentially affecting the viability of the cells
COS-7 cells
  transport of toxin into cells by TPPS2a and light: demonstrates the transport of gelonin into COS-7 cells

## saporin
NHIK 3025 cells [2]; 3.2 μg/ml TPPS2a, 1 μg/ml toxin
  transport of toxin into cells by TPPS2a and light: demonstrates transport of the toxin saporin into NHIK 3025 cells

## aluminum phtalocyanine with 2 sulfonate groups on adjacent phenyl rings [AlPcS2a, reference compound]
THX-cells [3]
  percentage of transfected cells versus photosensitizer concentration: increased with increasing photosensitizer concentration
V79 cells; selected light dose
  protein synthesis with photosensitizer and light, without toxin: small reduction in protein synthesis

## O=S(=O)(O)c1ccc(-c2c3nc(c(-c4ccc(S(=O)(=O)O)cc4)c4ccc([nH]4)c(-c4ccccc4)c4nc(c(-c5ccccc5)c5ccc2[nH]5)C=C4)C=C3)cc1 [TPPS2a, meso-tetraphenylporphine with 2 sulfonate groups on adjacent phenyl rings]
NHIK 3025 cells [1]; TPPS2a and light, no gelonin
  cells killed by the photodynamic treatment alone: 10-20%
NHIK 3025 cells [1]; light exposure increased, 24 hours after light
  clonogenic survival with TPPS2a and light: virtually all cells were killed
THX-cells [4]
  transfection-enhancing effect of PCI light treatment with TPPS2a as photosensitizer: substantial transfection-enhancing effect; also recorded: essentially the same as for AIPcS2a
NHIK 3025 cells [2]; TPPS2a and light, no gelonin, 24 hours after light
  reduction of protein synthesis by the photodynamic treatment alone: 30-40%
Lysosomal cathepsin
  inhibition of lysosomal cathepsin by photodynamic action: substantially inhibited

## ribozyme: 37-mer synthetic 2′-O-methylated fluorescein-labeled ribozyme designed against mRNA of the metastasis associated protein capl (SEQ ID NO:1) (UAGUUCUCUGAUGAGGCCGUUAGGCCGAAACUUGUUY; sugars from the 5' end mmmmmmmmmrrmrrrrmmrrrrrrmmrrrrmmmmmmr, [FluoU] at 20, 3' {invT}, backbone and the base at N not given here)
THX human melanoma cells; 5.5 μM ribozyme, 20 μg/ml AlPcS2a, 18 h, no light
  subcellular localization, nonirradiated cells: mainly localized in intracellular granules
THX human melanoma cells; 10 min red light, then 40 min
  subcellular localization after light exposure: most of the ribozyme fluorescence was present in the cytosol

## Oc1cccc(-c2c3nc(c(-c4cccc(O)c4)c4ccc([nH]4)c(-c4cccc(O)c4)c4nc(c(-c5cccc(O)c5)c5ccc2[nH]5)C=C4)C=C3)c1 [3-THPP, tetrahydroxylphenyl porphine, reference compound]
NHIK 3025 cells [2]; 0.25 μg/ml 3-THPP, light, 1 μg/ml gelonin, comparative example
  difference in protein synthesis effect with or without gelonin: no significant difference
